# Laboratory results taken from PMC3773988 (Journal of medicinal chemistry, 2013).
# Residues, ends and D or L forms follow the SMILES beside them. *: point of attachment. X1 = O=C(O)CCC(NC(=O)NC(CCCCNC(=O)CCCCCCC(=O)*)C(=O)O)C(=O)O; Acetyl(2-STrt) = O=C(CSC(c1ccccc1)(c1ccccc1)c1ccccc1)*
# Biological target: PSMA (Homo sapiens, UniProt Q04609)
# Experiment: NAALADase assay
# Type: biochemical
# Chain of PSMA (Q04609 whole entry): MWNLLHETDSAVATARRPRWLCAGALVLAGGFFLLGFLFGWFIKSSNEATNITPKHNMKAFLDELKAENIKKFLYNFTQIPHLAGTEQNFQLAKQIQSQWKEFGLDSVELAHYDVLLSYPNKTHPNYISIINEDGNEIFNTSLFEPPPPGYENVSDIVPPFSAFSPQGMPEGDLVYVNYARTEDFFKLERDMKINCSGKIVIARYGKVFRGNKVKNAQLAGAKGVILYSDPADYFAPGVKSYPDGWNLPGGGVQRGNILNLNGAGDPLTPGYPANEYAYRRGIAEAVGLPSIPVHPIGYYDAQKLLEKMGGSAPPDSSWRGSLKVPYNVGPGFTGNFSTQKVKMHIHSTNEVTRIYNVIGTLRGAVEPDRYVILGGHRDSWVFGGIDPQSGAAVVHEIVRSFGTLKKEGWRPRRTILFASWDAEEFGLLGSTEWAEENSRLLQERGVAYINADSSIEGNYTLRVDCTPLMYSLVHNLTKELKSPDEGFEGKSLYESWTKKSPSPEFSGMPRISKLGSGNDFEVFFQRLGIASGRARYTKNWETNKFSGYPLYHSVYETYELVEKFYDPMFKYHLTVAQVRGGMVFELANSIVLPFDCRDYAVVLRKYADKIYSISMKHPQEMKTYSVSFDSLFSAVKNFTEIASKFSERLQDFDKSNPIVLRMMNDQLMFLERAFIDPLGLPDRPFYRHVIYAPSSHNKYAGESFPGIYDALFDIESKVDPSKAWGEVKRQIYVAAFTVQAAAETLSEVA
row,SMILES,Ki
1,"O=C(O)CCC(NC(=O)NC(CCCCNC(=O)CCCCCCC(=O)NCCCCC(NC(=O)C(Cc1ccccc1)NC(=O)CNC(=O)CNC(=O)CSC(c1ccccc1)(c1ccccc1)c1ccccc1)C(=O)O)C(=O)O)C(=O)O (centres unmarked) [Compound L12, 12-benzyl-4,7,10,13,21,28,36-heptaoxo-1,1,1-triphenyl-2-thia-5,8,11,14,20,29,35,37-octaazatetracontane-15,34,38,40-tetracarboxylic acid] ({Acetyl(2-STrt)}-GGFK(X1)-OH; configuration not given here)",0.13 nM
2,O=C(O)CCC(NC(=O)NC(CCCCNC(=O)CCCCCCC(=O)NCCCCC(NC(=O)CNC(=O)CNC(=O)CSC(c1ccccc1)(c1ccccc1)c1ccccc1)C(=O)O)C(=O)O)C(=O)O (centres unmarked) [Compound L11],0.03 nM
3,"NC(Cc1cn(CCCC[C@H](NC(=O)CCCCCCC(=O)NCCCC[C@H](NC(=O)N[C@@H](CCC(=O)O)C(=O)O)C(=O)O)C(=O)O)nn1)C(=O)O (stereo partly drawn) [Compound L8, (3S,7S,22S)-26-(4-(2-amino-2-carboxyethyl)-1H-1,2,3-triazol-1-yl)-5,13,20-trioxo-4,6,12,21-tetraazahexacosane-1,3,7,22-tetracarboxylic acid]",1.12 nM
4,"O=C(O)CCC(NC(=O)NC(CCCCNC(=O)CCCCCCC(=O)NC(CCCCN(Cc1ncc[nH]1)Cc1ncc[nH]1)C(=O)O)C(=O)O)C(=O)O (centres unmarked) [Compound L10, 2-{3-[5-(7-(5-[Bis-(1H-imidazol-2-ylmethyl)-amino]-1-carboxy-pentylcarbamoyl)-heptanoylamino)-1-carboxy-pentyl]-ureido}-pentanedioic acid]",16.3 nM
5,"NNc1ccc(C(=O)NCCCCC(NC(=O)CCCCCCC(=O)NCCCCC(NC(=O)NC(CCC(=O)O)C(=O)O)C(=O)O)C(=O)O)cn1 (centres unmarked) [Compound L19, 2-(3-[1-Carboxy-5-(7-(1-carboxy-5-[(6-hydrazino-pyridine-3-carbonyl)-amino]-pentylcarbamoyl)-heptanoylamino)-pentyl]-ureido)-pentanedioic acid]",1.74 nM

# Continued, values first:
row,Ki,SMILES
1,12.6 nM,"O=C(O)CCC(NC(=O)NC(CCCCNC(=O)CCCCCCC(=O)NC(CCCCN(CC(=O)O)Cc1ccccn1)C(=O)O)C(=O)O)C(=O)O (centres unmarked) [Compound L9, 2-[3-(1-Carboxy-5-(7-[1-carboxy-5-(carboxymethyl-pyridin-2-ylmethyl-amino)-pentylcarbamoyl]-heptanoylamino)-pentyl)-ureido]-pentanedioic acid]"
2,1.91 nM,"O=C(O)CCC(NC(=O)NC(CCCCNC(=O)CCCCCCC(=O)NCCCCC(NC(=O)C(Cc1ccccc1)NC(=O)C(Cc1ccccc1)NC(=O)CNC(=O)CNC(=O)CSC(c1ccccc1)(c1ccccc1)c1ccccc1)C(=O)O)C(=O)O)C(=O)O (centres unmarked) [Compound L13, 12,15-dibenzyl-4,7,10,13,16,24,31,39-octaoxo-1,1,1-triphenyl-2-thia-5,8,11,14,17,23,32,38,40-nonaazatritetracontane-18,37,41,43-tetracarboxylic acid] ({Acetyl(2-STrt)}-GGFFK(X1)-OH; configuration not given here)"
3,0.048 nM,"O=C(O)CC[C@H](NC(=O)N[C@@H](CCCCNC(=O)CCCCCCC(=O)NCCCC[C@@H](NC(=O)C(CNC(=O)CSC(c1ccccc1)(c1ccccc1)c1ccccc1)NC(=O)CSC(c1ccccc1)(c1ccccc1)c1ccccc1)C(=O)O)C(=O)O)C(=O)O (stereo partly drawn) [Compound L16, (10R, 29S ,33S)-4,8,16,23,31-pentaoxo-1,1,1-triphenyl-7-(2-(tritylthio)acetamido)-2-thia-5,9,15,24,30,32-hexaazapentatriacontane-10,29,33,35-tetracarboxylic acid]"
